Patent US10815238B2, “Antimicrobial compounds and methods of making and using the same” (BIOVERSYS AG, priority 2013, dated 2020)

How the values were obtained:
[1] = test system: Eschericia coli (E. coli) strain ATCC25922; assay: Standard microdilution assay, MIC against E. coli ATCC25922; format: cell-based; conditions: Escherichia coli; E. coli strain ATCC25922, standard microdilution assay; cutoff 16 micrograms/mL; read-out: MIC E. Coli
Method in brief: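 MIC determined by broth microdilution following CLSI protocols, with reference strains run in parallel for quality control. Activity scored +/− at a cutoff of 16 micrograms/mL.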

[2] = test system: Staphylococcus aureus (S. aureus) 11540 strain; assay: Standard microdilution assay, MIC against S. aureus 11540; format: cell-based; conditions: S. aureus 11540 strain, standard microdilution assay, cutoff 16 micrograms/mL, read-out: MIC S. aureus
Procedure: The in vitro activity of the compounds of the present invention can be determined. Antimicrobial testing is typically performed to determine the minimum inhibitory concentration (MIC). Minimum inhibitory concentrations (MICs) are determined by the microdilution method in a final volume of 100 μl according to protocols outlined by The Clinical and Laboratory Standards Institute (CLSI). Performance standards for reference strains are assessed within the same experimental design to maintain quality control. See, for example, Clinical Laboratory Standards Institute: Methods for dilution antimicrobial susceptibility tests for bacteria that grow aerobically M7-A8. Approved Standard-Eighth Edition. Wayne, Pa.: CLSI; December 2008; and Clinical Laboratory Standards Institute: Performance Standards for Antimicrobial Susceptibility Testing M100-S20; Approved Standard-Twentieth Edition. Wayne, Pa.: CLSI; June 2010.
The compounds of the present invention were tested for antimicrobial activity. The Compounds 1-582 were run against Eschericia coli (E. coli) strain ATCC25922 and Compounds 320-582 were run against Staphylococcus aureus (S. aureus) 11540 strain using a standard microdilution assay to determine minimum inhibitory concentrations (MICs). […] It will be recognized by one skilled in the art that the compounds can be assessed against other bacterial organisms and that the presentation of data for activity against Eschericia coli and Staphylococcus aureus are illustrative and in no way is intended to limit the scope of the present invention. The compounds of the present invention can be assayed against a range of other microorganisms depending upon the performance activity desired to be gathered. Furthermore, the “+” and “−” representation and the selection of a cutoff value of 16 micrograms/mL is also illustrative and in no way is intended to limit the scope of the present invention.

Row | SMILES | MIC [1] [µg/mL] | MIC [2] [µg/mL]
1 | C[C@H](N)CCCc1cc(Cl)c(F)c(-c2cc3cn(-c4ccc(CN[C@@H](C)C[C@@H](CCO)NC(=N)N)cc4)c(=O)nc3[nH]2)c1 [Compound 359] | < 16 | < 16
2 | C[C@H](N)CCCc1cc(Cl)c(F)c(-c2cc3cn(-c4ccc([C@H](N)CCCNC(=N)N)cc4)c(=O)nc3[nH]2)c1 [Compound 456] | < 16 | < 16
3 | C[C@H](N)CCCc1cc(Cl)c(F)c(-c2cc3cn(-c4ccc(CN[C@@H](C)C[C@@H](CO)NC(=N)N)cc4)c(=O)nc3[nH]2)c1 [Compound 436] | < 16 | < 16
4 | C[C@H](N)CCCc1cc(Cl)c(F)c(-c2cc3cn(-c4ccc(CN[C@H](CCNC(=N)N)CNc5ncccn5)cc4)c(=O)nc3[nH]2)c1 [Compound 524] | < 16 | < 16
5 | C[C@H](N)CCCc1cc(Cl)c(F)c(-c2cc3cn(-c4ccc(CO[C@H](CCNC(=N)N)CNc5nccs5)cc4)c(=O)nc3[nH]2)c1 [Compound 534] | < 16 | < 16
6 | COCC[C@H](CCN[C@@H](C)c1ccc(-n2cc3cc(-c4cc(CCC[C@H](C)N)cc(OC(F)(F)F)c4F)[nH]c3nc2=O)cc1)NC(=N)N [Compound 350] | < 16 | < 16
7 | C[C@H](N)CCCc1cc(OC(F)(F)F)c(F)c(-c2cc3cn(-c4ccc(C(O)CNC(=N)N)cc4)c(=O)nc3[nH]2)c1 (some centres unmarked) [Compound 472] | < 16 | < 16
8 | C[C@H](N)CCCc1cc(Cl)c(F)c(-c2cc3cn(-c4ccc([C@H](C)N[C@@H](CCNC(=N)N)C(N)=O)cc4)c(=O)nc3[nH]2)c1 [Compound 363] | < 16 | < 16
9 | C=C[C@H](C[C@H](C)NCc1ccc(-n2cc3cc(-c4cc(CCC[C@H](C)N)cc(Cl)c4F)[nH]c3nc2=O)cc1)NC(=N)N [Compound 338] | < 16 | < 16
10 | C[C@H](N)CCCc1cc(OC(F)(F)F)c(F)c(-c2cc3cn(-c4ccc([C@H](N)CCCNC(=N)N)cc4)c(=O)nc3[nH]2)c1 [Compound 457] | < 16 | < 16
11 | C=C[C@H](C[C@@H](C)NCc1ccc(-n2cc3cc(-c4cc(CCC[C@H](C)N)cc(Cl)c4F)[nH]c3nc2=O)cc1)NC(=N)N [Compound 371] | < 16 | < 16
12 | C=C[C@@H](CCNC(=N)N)NCc1ccc(-n2cc3cc(-c4cc(CCC[C@H](C)N)cc(OC(F)(F)F)c4F)[nH]c3nc2=O)cc1 [Compound 388] | < 16 | < 16
13 | C[C@H](N)CCCc1cc(Cl)c(F)c(-c2cc3cn(-c4ccc([C@H](C)NCC[C@H](CC#N)NC(=N)N)cc4)c(=O)nc3[nH]2)c1 [Compound 332] | < 16 | < 16
14 | C[C@H](N)CCCc1cc(OC(F)(F)F)c(F)c(-c2cc3cn(-c4ccc(CN[C@@H](CN)CCNC(=N)N)cc4)c(=O)nc3[nH]2)c1 [Compound 380] | < 16 | < 16
15 | C[C@H](N)CCCc1cc(OC(F)(F)F)c(F)c(-c2cc3cn(-c4ccc([C@H](C)NCC[C@H](CNC(=O)CN)NC(=N)N)cc4)c(=O)nc3[nH]2)c1 [Compound 369] | < 16 | < 16
16 | C[C@H](N)CCCc1cc(Cl)c(F)c(-c2cc3cn(-c4ccc([C@@H](N)CCCNC(=N)N)cc4)c(=O)nc3[nH]2)c1 [Compound 412] | < 16 | < 16
17 | COC(=O)[C@H](CCNC(=N)N)N[C@@H](C)c1ccc(-n2cc3cc(-c4cc(CCC[C@H](C)N)cc(Cl)c4F)[nH]c3nc2=O)cc1 [Compound 356] | < 16 | < 16
18 | C[C@H](N)CCCc1cc(Cl)c(F)c(-c2cc3cn(-c4ccc(C5(CCNC(=N)N)CN(C(=N)N)C5)cc4)c(=O)nc3[nH]2)c1 [Compound 404] | < 16 | < 16
19 | C=C[C@@H](CCNC(=N)N)NCc1ccc(-n2cc3cc(-c4cc(CCC[C@@H](N)CO)cc(Cl)c4F)[nH]c3nc2=O)cc1 [Compound 395] | < 16 | < 16

Further lines, results first:

Row | MIC [1] [µg/mL] | MIC [2] [µg/mL] | SMILES
20 | < 16 | < 16 | C[C@H](N)CCCc1cc(Cl)c(F)c(-c2cc3cn(-c4ccc([C@@H]5CCC[C@@H](CCN)N5)cc4)c(=O)nc3[nH]2)c1 [Compound 421]
21 | < 16 | < 16 | C[C@H](N)CCCc1cc(Cl)c(F)c(-c2cc3cn(-c4ccc([C@@H]5CCO[C@@H](CCCN)C5)cc4)c(=O)nc3[nH]2)c1 [Compound 522]
22 | < 16 | < 16 | C[C@H](NCCCNC(=N)N)c1ccc(-n2cc3cc(-c4cc([C@@H]5CC[C@H](CN)O5)cc(Cl)c4F)[nH]c3nc2=O)cc1 [Compound 446]
23 | < 16 | < 16 | C[C@H](N)CCCc1cc(Cl)c(F)c(-c2cc3cn(-c4ccc(C(N)CNC(=N)N)cc4)c(=O)nc3[nH]2)c1 (some centres unmarked) [Compound 473]
24 | > 16 | < 16 | C[C@H](N)CCCc1cc(Cl)c(F)c(-c2cc3cn(-c4ccc([C@@H]5CCC[C@@H](CCNc6nccs6)N5)cc4)c(=O)nc3[nH]2)c1 [Compound 535]
25 | > 16 | > 16 | CNC(=O)CC[C@@H]1CCC[C@@H](c2ccc(-n3cc4cc(-c5cc(CCC[C@H](C)N)cc(Cl)c5F)[nH]c4nc3=O)cc2)N1 [Compound 513]
26 | < 16 | < 16 | C[C@H](N)CCCN1CC[C@@H](c2cc3cn(-c4ccc(CNCCCNC(=N)N)cc4)c(=O)nc3[nH]2)C1 [Compound 577]
27 | > 16 | > 16 | C[C@H](N)CCCc1cc(Cl)c(F)c(-c2cc3cn(-c4ccc([C@@H]5CCC[C@@H](Cn6cn[nH]c6=O)N5)cc4)c(=O)nc3[nH]2)c1 [Compound 539]
28 | < 16 | < 16 | N=C(N)N[C@@H](CN)CCNCc1ccc(-n2cc3cc(-c4cc(CCC[C@@H](N)CO)cc(Cl)c4F)[nH]c3nc2=O)cc1 [Compound 399]
29 | < 16 | < 16 | C[C@H](N)CCCc1cc(-c2cc3cn(-c4ccc([C@@H]5CCC[C@@H](CCN)N5)cc4)c(=O)nc3[nH]2)cc(C(F)(F)F)c1 [Compound 485]
30 | < 16 | < 16 | C[C@H](N)CCCc1cc(OC(F)(F)F)c(F)c(-c2cc3cn(-c4ccc([C@@H]5CCC[C@@H](CCNC(=N)N)N5)cc4)c(=O)nc3[nH]2)c1 [Compound 430]
31 | < 16 | < 16 | C[C@H](N)CCCc1cc(Cl)c(F)c(-c2cc3cn(-c4ccc([C@H](N)CCCN)cc4)c(=O)nc3[nH]2)c1 [Compound 454]
32 | < 16 | < 16 | C[C@H](N)CCCc1cc(OC(F)(F)F)c(F)c(-c2cc3cn(-c4ccc([C@H]5CC(CCNC(=N)N)CN5)cc4)c(=O)nc3[nH]2)c1 (some centres unmarked) [Compound 470]
33 | < 16 | < 16 | NCC[C@@H]1CCC[C@@H](c2ccc(-n3cc4cc(-c5ccc(S(=O)(=O)NC6CCNCC6)cc5)[nH]c4nc3=O)cc2)N1 [Compound 493]
34 | < 16 | < 16 | N=C(N)NCC[C@@H]1CCC[C@@H](c2ccc(-n3cc4cc(-c5ccc(S(=O)(=O)NC6CCN(C(=N)N)CC6)cc5)[nH]c4nc3=O)cc2)N1 [Compound 494]
35 | < 16 | < 16 | C[C@H](N)CCCc1cc(Cl)c(F)c(-c2cc3cn(-c4ccc(CN[C@H](CCNC(=N)N)CNS(C)(=O)=O)cc4)c(=O)nc3[nH]2)c1 [Compound 544]
36 | < 16 | < 16 | N=C(N)NCC[C@H](CN)NCc1ccc(-n2cc3cc(-c4cc(CCC[C@@H](N)CO)cc(Cl)c4F)[nH]c3nc2=O)cc1 [Compound 394]
37 | < 16 | < 16 | C[C@H](N)CCCc1cc(Cl)c(F)c(-c2cc3cn(-c4ccc(C5=NCCCN5)cc4)c(=O)nc3[nH]2)c1 [Compound 564]
38 | < 16 | < 16 | C[C@H](N)CCCc1cc(Cl)c(F)c(-c2cc3cn(-c4ccc([C@H]5CCC[C@@H](CCNC(=N)N)N5)cc4)c(=O)nc3[nH]2)c1 [Compound 444]
39 | < 16 | < 16 | C[C@H](N)CCCc1cc(Cl)c(F)c(-c2cc3cn(-c4ccc(CN[C@H](CCN)Cn5ccnn5)cc4)c(=O)nc3[nH]2)c1 [Compound 500]
40 | < 16 | < 16 | C[C@H](N)CCCc1cc(Cl)c(F)c(-c2cc3cn(-c4ccc([C@@H]5CCO[C@@H](CCCNC(=N)N)C5)cc4)c(=O)nc3[nH]2)c1 [Compound 523]
41 | < 16 | < 16 | C[C@H](N)CCCc1cc(OC(F)(F)F)c(F)c(-c2cc3cn(-c4ccc(C(=N)NCCCN)cc4)c(=O)nc3[nH]2)c1 [Compound 462]
42 | < 16 | < 16 | CC[C@H](N)CCCc1cc(Cl)c(F)c(-c2cc3cn(-c4ccc(CN5CC[C@H](CN)NC5=N)cc4)c(=O)nc3[nH]2)c1 [Compound 416]
43 | < 16 | < 16 | C[C@H](N)CCCc1cc(Cl)c(F)c(-c2cc3cn(-c4ccc(CN[C@H](CCNC(=N)N)CNc5nccs5)cc4)c(=O)nc3[nH]2)c1 [Compound 491]
